Data on eleven compounds can be found in patent US20250051344A1, “BIFUNCTIONAL SELECTIVE DEGRADERS OF SMARCA2 AND THERAPEUTIC USES THEREOF” (Nurix Therapeutics, Inc., priority 2023, published 2025).

One may read the DC50 as the concentration giving 50% degradation. Low readings indicate degradation at low concentration, high ones degradation only at high concentration. As a reminder, the Dmax is the largest share of the target that was removed. Lower therefore signals shallow degradation.

One experiment concerns the target T1, SMARCA2 (Homo sapiens, UniProt P51531).
T1 construct: endogenous in cells
Kind of experiment: SMARCA2 Cellular Degradation Assay (Western blot analysis on Jess platform). It is filed as cell-based. The following applies: for DC50 / Dmax: cellular degradation; for Fold Selectivity SMARCA4/2: ratio DC50 SMARCA4 / DC50 SMARCA2. The protocol:
SMARCA2 Cellular Degradation Assay
Western Blot Analysis for SMARCA2 Degradation
Frozen cell pellets were thawed on ice and resuspended in RIPA lysis buffer (Millipore, Cat. No. 20-188) supplemented with 0.2% SDS (Fisher Scientific, Cat. No. 24730020), 200 mM β-glycerophosphate (Alfa Aesar, Cat. No. J62121), 500 mM NaF (Rigaku, Cat. No. 1008046), protease inhibitor (1 tablet per 10 mL, Sigma, Cat. No. 11836170001), 250 U/μL benzonase (Millipore, Cat. No. 71206), 200 mM sodium orthovanadate (FivePhoton, Cat. No. ActVO-4), and 100 mM PMSF (Sigma, Cat. No. 10837091001). 50 μL lysis buffer was used to lyse each pellet containing 5×10E5-1×10E6 live cells extracted from tumors. Lysates were centrifuged for 10 mins at 20,817×g and lysate supernatants were saved for further analysis. Protein levels were determined by the BCA Assay performed according to manufacturer's protocol (EMD Millipore, Cat. No. 71285-3). Samples were evaluated by Western blot analysis on the Jess Platform (ProteinSimple). Lysates were diluted with complete lysis buffer (as described above) and 5 μg of total proteins were loaded onto each capillary. Samples were prepared using the ProteinSimple EZ Standard Pack 1 (Cat. No. PS-ST01EZ-8; containing tubes with powdered (5×) Fluorescent Master Mix, DTT, and biotinylated ladder) and run using the ProteinSimple 25-Capillary Cartridge kit (Cat. No. SM-W004; containing 25-capillary cartridge Wash reagent, and 10× Sample Buffer reagent), the ProteinSimple Anti-Rabbit HRP Detection Module for Jess (Cat. No. DM-001; containing Antibody Diluent, anti-rabbit secondary antibody, Luminol-S, Peroxide, and Streptavidin-HRP), and the ProteinSimple Anti-Mouse NIR Detection Module for Jess (Cat. No. DM-009; containing Antibody Diluent, anti-mouse NIR secondary antibody, and Streptavidin-NIR) as the following describes. The DTT was reconstituted with 40 μL water to make a 400 mM solution, 20 μL of the DTT solution plus 20 μL of 10× Sample Buffer were added to reconstitute the 5× Fluorescent Master Mix, and 20 μL of H2O was used to reconstitute the biotinylated ladder. For each sample, lysate (4 μL) was combined with 5× Fluorescent Master Mix (1 μL) and heated at 95° C. for 5 minutes. Samples were cooled and stored on ice. Primary antibody solution was made using anti-SMARCA2 antibody (Abcam, Cat. No. 240648, 1:10) and anti-beta-Actin antibody (Cell Signaling Technology, Cat. No. 3700S, 1:25) in antibody diluent. The 25-capillary cartridges were prepared per standard ProteinSimple protocol with each sample in a column. For the biotinylated ladder in column 1, the following were added: 5 µL of ladder sample in Row A, 10 μL of antibody diluent in Rows B and C, 10 μL of Streptavidin-NIR in Row D, and 15 μL of a 50:50 Luminol-s/Peroxide solution in Row E. For each test sample (columns 2-25), the following were added per column: 5 μL of sample in Row A, 10 μL of antibody diluent in Row B, 10 μL of primary antibody solution in Row C, 10 μL of secondary antibody in Row D, and 15 μL of a 50:50 Luminol-S/Peroxide solution in Row E. 500 μL wash buffer was added to the wash buffer wells in the cartridge and cartridge was spun at 1000×g for 5 minutes prior to loading into the Jess. Samples were run using the Chemiluminescence and Fluorescence immunoassays in the ProteinSimple Compass for SimpleWestern program (version 5.0.0). After running, SMARCA2, actin, and background curves were identified in the Compass software; note that in the Compass software, the electropherograms are also visualized as bands for comparison with standard Western blot outputs. The electropherogram area reading for each sample curve was normalized to that of the corresponding actin curve per column following background (capillary background) subtraction using the following equation: […]
Following normalization, the percentage of SMARCA2 remaining per sample relative to the vehicle control was calculated as follows: […]
On the technique in general: A western blot detects proteins with antibodies after separation by electrophoresis.

The target in the next experiment is T2, SMARCA4 (Homo sapiens, UniProt P51532).
T2 construct: endogenous in cells
Kind of experiment: Cellular degradation assay, SMARCA4 (Table 1). It is filed as cell-based.

SMILES strings stand for the structures.

T2 sequence (P51532 whole entry, species assumed): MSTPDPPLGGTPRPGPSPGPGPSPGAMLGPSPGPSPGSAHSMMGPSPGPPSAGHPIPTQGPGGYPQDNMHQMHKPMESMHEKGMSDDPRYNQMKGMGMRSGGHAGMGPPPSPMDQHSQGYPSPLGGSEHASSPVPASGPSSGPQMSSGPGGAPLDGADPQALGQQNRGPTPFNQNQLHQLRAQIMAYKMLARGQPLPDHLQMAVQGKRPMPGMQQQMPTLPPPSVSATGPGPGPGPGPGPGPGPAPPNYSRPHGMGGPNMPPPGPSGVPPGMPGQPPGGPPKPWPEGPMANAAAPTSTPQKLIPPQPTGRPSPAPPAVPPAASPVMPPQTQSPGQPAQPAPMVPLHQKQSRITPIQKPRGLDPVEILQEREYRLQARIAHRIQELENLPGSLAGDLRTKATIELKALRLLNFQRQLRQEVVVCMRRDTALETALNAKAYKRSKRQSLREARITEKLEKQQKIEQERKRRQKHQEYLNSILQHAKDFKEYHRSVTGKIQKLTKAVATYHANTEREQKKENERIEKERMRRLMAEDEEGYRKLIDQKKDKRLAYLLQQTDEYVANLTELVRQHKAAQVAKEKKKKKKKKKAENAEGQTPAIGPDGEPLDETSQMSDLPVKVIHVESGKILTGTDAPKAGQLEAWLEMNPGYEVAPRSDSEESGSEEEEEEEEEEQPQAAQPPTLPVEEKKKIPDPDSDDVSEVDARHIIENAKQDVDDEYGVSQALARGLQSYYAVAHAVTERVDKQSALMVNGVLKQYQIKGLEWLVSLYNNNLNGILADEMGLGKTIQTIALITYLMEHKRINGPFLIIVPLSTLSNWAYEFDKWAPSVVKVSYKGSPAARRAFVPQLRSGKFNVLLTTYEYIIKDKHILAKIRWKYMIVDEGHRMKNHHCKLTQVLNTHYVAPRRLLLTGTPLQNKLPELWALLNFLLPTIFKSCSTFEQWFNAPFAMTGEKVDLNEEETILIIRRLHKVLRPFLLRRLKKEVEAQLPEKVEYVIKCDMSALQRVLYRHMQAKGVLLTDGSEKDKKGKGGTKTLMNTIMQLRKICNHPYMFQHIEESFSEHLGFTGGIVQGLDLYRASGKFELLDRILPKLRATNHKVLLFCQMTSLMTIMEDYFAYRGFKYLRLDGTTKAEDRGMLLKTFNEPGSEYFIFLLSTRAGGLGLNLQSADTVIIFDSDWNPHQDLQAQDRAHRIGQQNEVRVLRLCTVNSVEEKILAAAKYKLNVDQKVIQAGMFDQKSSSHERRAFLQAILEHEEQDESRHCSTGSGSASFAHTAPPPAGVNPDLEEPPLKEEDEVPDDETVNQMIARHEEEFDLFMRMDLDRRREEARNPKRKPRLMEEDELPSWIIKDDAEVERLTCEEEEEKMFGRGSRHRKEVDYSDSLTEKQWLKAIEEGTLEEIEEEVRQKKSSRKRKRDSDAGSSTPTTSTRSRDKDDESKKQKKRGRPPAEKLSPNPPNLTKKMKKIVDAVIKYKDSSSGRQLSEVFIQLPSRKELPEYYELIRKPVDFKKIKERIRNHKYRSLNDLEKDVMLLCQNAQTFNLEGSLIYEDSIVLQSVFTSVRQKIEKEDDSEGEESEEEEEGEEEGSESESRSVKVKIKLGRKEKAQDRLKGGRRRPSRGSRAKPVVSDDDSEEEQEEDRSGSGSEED
T1 sequence (P51531 whole entry, species assumed): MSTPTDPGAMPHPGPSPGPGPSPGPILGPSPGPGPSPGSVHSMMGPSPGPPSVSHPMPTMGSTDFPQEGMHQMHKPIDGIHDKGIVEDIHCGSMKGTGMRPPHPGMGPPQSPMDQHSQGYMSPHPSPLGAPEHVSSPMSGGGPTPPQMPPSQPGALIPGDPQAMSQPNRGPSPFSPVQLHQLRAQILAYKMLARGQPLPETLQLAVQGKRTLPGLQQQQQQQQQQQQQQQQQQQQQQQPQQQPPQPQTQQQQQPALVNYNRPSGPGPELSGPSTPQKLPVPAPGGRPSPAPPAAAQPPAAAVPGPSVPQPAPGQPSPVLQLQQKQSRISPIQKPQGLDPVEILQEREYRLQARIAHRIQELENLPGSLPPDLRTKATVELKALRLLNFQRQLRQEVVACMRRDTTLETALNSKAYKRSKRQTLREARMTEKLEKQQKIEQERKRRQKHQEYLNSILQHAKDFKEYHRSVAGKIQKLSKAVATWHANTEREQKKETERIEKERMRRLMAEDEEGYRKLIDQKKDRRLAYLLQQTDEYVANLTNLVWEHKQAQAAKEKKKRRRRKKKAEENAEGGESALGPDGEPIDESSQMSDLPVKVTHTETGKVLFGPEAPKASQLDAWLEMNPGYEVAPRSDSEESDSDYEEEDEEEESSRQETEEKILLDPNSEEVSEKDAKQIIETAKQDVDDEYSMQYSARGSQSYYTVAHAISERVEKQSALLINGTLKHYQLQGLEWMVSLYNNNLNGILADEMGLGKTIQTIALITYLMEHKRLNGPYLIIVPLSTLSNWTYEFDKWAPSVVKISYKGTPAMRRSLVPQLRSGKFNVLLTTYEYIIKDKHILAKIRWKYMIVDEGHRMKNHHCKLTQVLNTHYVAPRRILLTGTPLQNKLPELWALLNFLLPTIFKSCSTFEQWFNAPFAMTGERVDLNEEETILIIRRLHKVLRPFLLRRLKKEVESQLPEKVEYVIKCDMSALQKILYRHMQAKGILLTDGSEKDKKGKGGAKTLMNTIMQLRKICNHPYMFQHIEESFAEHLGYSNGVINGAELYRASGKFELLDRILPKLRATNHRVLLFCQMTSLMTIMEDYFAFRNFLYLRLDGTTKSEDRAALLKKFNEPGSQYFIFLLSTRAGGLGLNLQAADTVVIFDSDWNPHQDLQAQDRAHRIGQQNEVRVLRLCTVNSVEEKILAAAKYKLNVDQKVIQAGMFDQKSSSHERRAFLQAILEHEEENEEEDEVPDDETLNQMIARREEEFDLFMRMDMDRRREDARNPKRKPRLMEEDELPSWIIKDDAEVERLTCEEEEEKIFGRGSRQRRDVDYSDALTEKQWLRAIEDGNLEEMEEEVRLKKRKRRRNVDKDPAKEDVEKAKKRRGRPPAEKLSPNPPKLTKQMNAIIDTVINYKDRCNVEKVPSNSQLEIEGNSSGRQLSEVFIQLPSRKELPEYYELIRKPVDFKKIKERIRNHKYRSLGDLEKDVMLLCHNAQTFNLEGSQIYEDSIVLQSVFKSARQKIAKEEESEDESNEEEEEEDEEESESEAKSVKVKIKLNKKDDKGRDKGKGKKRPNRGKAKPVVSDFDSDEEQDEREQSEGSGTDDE

Take `C[C@H]1C[C@H](NC(=O)C2(c3ccccc3)CCN(c3cnnc(-c4ccccc4O)c3)CC2)CCN1C(=O)CN1CCC(c2ccc([C@H]3CCC(=O)NC3=O)cc2)CC1` (racemic) [Example 76, n-((2s,4r)-1-(2-(4-(4-((rs)-2,6-dioxopiperidin-3-yl)phenyl)piperidin-1-yl)acetyl)-2-methylpiperidin-4-yl)-1-(6-(2-hydroxyphenyl)pyridazin-4-yl)-4-phenylpiperidine-4-carboxamide]: at SMARCA2, the DC50 turned out to be 9.53 nM, the maximal degradation (Dmax) turned out to be 83.5% and the “Fold Selectivity SMARCA4/2” value is 1049. The compound further yielded a maximal degradation (Dmax) at SMARCA4 of 24.7%.
As for `O=C1CCC(c2ccc(N3CCN(C(=O)C4CC45CCN(C(=O)C4(c6ccccc6)CCN(c6cnnc(-c7ccccc7O)c6)CC4)C5)CC3)cc2)C(=O)N1` (racemic) [Example 29, rac-(3R)-3-{4-[4-(5-{1-[6-(2-hydroxyphenyl)pyridazin-4-yl]-4-phenylpiperidine-4-carbonyl}-5-azaspiro[2.4]heptane-1-carbonyl)piperazin-1-yl]phenyl}piperidine-2,6-dione], on SMARCA2, the greatest degradation seen (Dmax) worked out at 5.79% and the “Fold Selectivity SMARCA4/2” value amounted to 1. In addition, at SMARCA4, the maximal degradation (Dmax) was 0.46%.
In the case of `O=C1CCC(Nc2ccc(C3CCN(CC(=O)N4CCC5(CC4)CN(C(=O)C4(c6ccccc6)CCN(c6cnnc(-c7ccccc7O)c6)CC4)C5)CC3)cc2)C(=O)N1` (racemic) [Example 108, rac-(r)-3-((4-(1-(2-(2-(1-(6-(2-hydroxyphenyl)pyridazin-4-yl)-4-phenylpiperidine-4-carbonyl)-2,7-diazaspiro[3.5]nonan-7-yl)-2-oxoethyl)piperidin-4-yl)phenyl)amino)piperidine-2,6-dione], on SMARCA2, the DC50 is 23.4 nM, the Dmax came to 66.5% and the “Fold Selectivity SMARCA4/2” value is listed as 8. At SMARCA4, this compound showed a half-maximal degradation concentration (DC50) of 179 nM and a Dmax of 52.5%.
For `COCCN(CC1(c2ccccc2)CCN(c2cnnc(-c3ccccc3O)c2)CC1)C(=O)C1CCN(CCC2CCN(c3ccc([C@@H]4CCC(=O)NC4=O)cc3)CC2)CC1` (racemic) [Example 145, rac-(r)-1-(2-(1-(4-(2,6-dioxopiperidin-3-yl)phenyl)piperidin-4-yl)ethyl)-n-((1-(6-(2-hydroxyphenyl)pyridazin-4-yl)-4-phenylpiperidin-4-yl)methyl)-n-(2-methoxyethyl)piperidine-4-carboxamide], on SMARCA2, the half-maximal degradation concentration (DC50) amounted to 1.69 nM, the Dmax amounted to 92.8% and the “Fold Selectivity SMARCA4/2” value turned out to be 6. At SMARCA4, this compound yielded a half-maximal degradation concentration (DC50) of 9.67 nM and a Dmax of 84.5%.
`O=C1CC[C@H](c2ccc(C3CCN(CC(=O)N4CCC(S(=O)(=O)NCC5(c6ccccc6)CCN(c6cnnc(-c7ccccc7O)c6)CC5)CC4)CC3)cc2)C(=O)N1` (racemic) [Example 109, rac-1-(2-(4-(4-(2,6-dioxopiperidin-3-yl)phenyl)piperidin-1-yl)acetyl)-n-((1-(6-(2-hydroxyphenyl)pyridazin-4-yl)-4-phenylpiperidin-4-yl)methyl)piperidine-4-sulfonamide]: at SMARCA2, the half-maximal degradation concentration (DC50) came to 76.9 nM, the Dmax was 82.7% and the “Fold Selectivity SMARCA4/2” value is recorded as 6. At SMARCA4, this compound displayed a 50% degradation concentration (DC50) of 498 nM and a Dmax of 67.1%.
With `O=C1CCC(c2ccc(N3C[C@H]4CN(CC(=O)N5CCC6(CC5)CN(C(=O)C5(c7ccccc7)CCN(c7cnnc(-c8ccccc8O)c7)CC5)C6)C[C@@H]4C3)cc2)C(=O)N1` (mixture of isomers) [Example 150, (3RS)-3-{4-[(3aR,6aR)-5-[2-(2-{1-[6-(2-hydroxyphenyl)pyridazin-4-yl]-4-phenylpiperidine-4-carbonyl}-2,7-diazaspiro[3.5]nonan-7-yl)-2-oxoethyl]-octahydropyrrolo[3,4-c]pyrrol-2-yl]phenyl}piperidine-2,6-dione], on SMARCA2, the 50% degradation concentration (DC50) was 22.6 nM, the maximal degradation (Dmax) was 73.9% and the “Fold Selectivity SMARCA4/2” value amounted to 442. In addition, the Dmax on SMARCA4 was determined as 50.6%.
Take `O=C1CC[C@H](c2ccc(N3CCC4(CC3)CC(N[C@H]3CC[C@H](NC(=O)C5(c6ccccc6)CCN(c6cnnc(-c7ccccc7O)c6)CC5)CC3)CO4)cc2)C(=O)N1` (mixture of isomers) [Example 178, 1-[6-(2-hydroxyphenyl)pyridazin-4-yl]-4-phenyl-N-[(1r,4r)-4-[(8-{4-[(3RS)-2,6-dioxopiperidin-3-yl]phenyl}-1-oxa-8-azaspiro[4.5]decan-3-yl)amino]cyclohexyl]piperidine-4-carboxamide]: at SMARCA2, it took 10.1 nM to reach half-maximal degradation (DC50), the maximal degradation (Dmax) was 76.2% and the “Fold Selectivity SMARCA4/2” value amounted to 7. On SMARCA4, this compound gave a DC50 of 70.3 nM and a Dmax of 62.2%.
As for `O=C1CCC(c2ccc(N3CCC4(CCN(CC5CCN(C(=O)C6(c7ccccc7)CCN(c7cnnc(-c8ccccc8O)c7)CC6)CC5)C4)CC3)cc2)C(=O)N1` (racemic) [Example 163, rac-(3R)-3-(4-{2-[(1-{1-[6-(2-hydroxyphenyl)pyridazin-4-yl]-4-phenylpiperidine-4-carbonyl}piperidin-4-yl)methyl]-2,8-diazaspiro[4.5]decan-8-yl}phenyl)piperidine-2,6-dione], at SMARCA2, it took 40.8 nM to reach half-maximal degradation (DC50), the Dmax was 62% and the “Fold Selectivity SMARCA4/2” value is reported as 245. Besides, the greatest degradation seen (Dmax) on SMARCA4 worked out at 49.3%.
Take `O=C1CC[C@H](c2ccc(N3CCC(CN4CCC(C5CCN(C(=O)C6(c7ccccc7)CCN(c7cnnc(-c8ccccc8O)c7)CC6)CC5)C4)CC3)cc2)C(=O)N1` (stereo partly drawn) [Example 48, (3R)-3-[4-(4-{[3-(1-{1-[6-(2-hydroxyphenyl)pyridazin-4-yl]-4-phenylpiperidine-4-carbonyl}piperidin-4-yl)pyrrolidin-1-yl]methyl}piperidin-1-yl)phenyl]piperidine-2,6-dione]: the maximal degradation (Dmax) at SMARCA2 was determined as 35.6%; at SMARCA4, 16.3%. Also, the “Fold Selectivity SMARCA4/2” value on SMARCA2 came out at 1.
Turning to `O=C1CC[C@H](c2ccc(N3CCC(CCN4CC5CCC(C4)C5C(=O)NCC4(c5ccccc5)CCN(c5cnnc(-c6ccccc6O)c5)CC4)CC3)cc2)C(=O)N1` (mixture of isomers) [Example 144, rac-3-(2-(1-(4-((r)-2,6-dioxopiperidin-3-yl)phenyl)piperidin-4-yl)ethyl)-n-((1-(6-(2-hydroxyphenyl)pyridazin-4-yl)-4-phenylpiperidin-4-yl)methyl)-3-azabicyclo[3.2.1]octane-8-carboxamide], at SMARCA2, the DC50 is 1.36 nM, the maximal degradation (Dmax) was 93.7% and the “Fold Selectivity SMARCA4/2” value came out at 10. Moreover, on SMARCA4, the half-maximal degradation concentration (DC50) amounted to 13.4 nM and the Dmax was 80.7%.
As for `CN(C(=O)C1(c2cc3ccccn3n2)CCN(c2cnnc(-c3ccccc3O)c2)CC1)C1CCN(CCC2CCN(c3ccc(C4CCC(=O)NC4=O)cc3)CC2)CC1` (racemic) [Example 77, rac-N-{1-[2-(1-{4-[(3R)-2,6-dioxopiperidin-3-yl]phenyl}piperidin-4-yl)ethyl]piperidin-4-yl}-1-[6-(2-hydroxyphenyl)pyridazin-4-yl]-N-methyl-4-{pyrazolo[1,5-a]pyridin-2-yl}piperidine-4-carboxamide], on SMARCA2, half-maximal degradation (DC50) was put at 4.12 nM, the Dmax was 87% and the “Fold Selectivity SMARCA4/2” value is 2427. At SMARCA4, this compound displayed a Dmax of 44.2%.
